In patent publication US20170056380A1, “Systems, Methods, Techniques, and Compounds in Research and Treatment of Portal Hypertension and other Conditions” (priority 2014, published 2017):

Columns and labels:
[1] = biological target: T1, eNOS (Rattus norvegicus, UniProt Q62600); assay: NOS activity assay (conversion of L-[3H]arginine to L-[3H]citrulline) in sinusoidal endothelial cell lysates; type: cell-based; details: cicletanine 100 nM plus inhibitor
T1 construct: endogenous in cells; host or cells: primary liver sinusoidal endothelial cells from male Sprague-Dawley rats (normal or bile-duct-ligated)
T1 sequence (Q62600 1-1202): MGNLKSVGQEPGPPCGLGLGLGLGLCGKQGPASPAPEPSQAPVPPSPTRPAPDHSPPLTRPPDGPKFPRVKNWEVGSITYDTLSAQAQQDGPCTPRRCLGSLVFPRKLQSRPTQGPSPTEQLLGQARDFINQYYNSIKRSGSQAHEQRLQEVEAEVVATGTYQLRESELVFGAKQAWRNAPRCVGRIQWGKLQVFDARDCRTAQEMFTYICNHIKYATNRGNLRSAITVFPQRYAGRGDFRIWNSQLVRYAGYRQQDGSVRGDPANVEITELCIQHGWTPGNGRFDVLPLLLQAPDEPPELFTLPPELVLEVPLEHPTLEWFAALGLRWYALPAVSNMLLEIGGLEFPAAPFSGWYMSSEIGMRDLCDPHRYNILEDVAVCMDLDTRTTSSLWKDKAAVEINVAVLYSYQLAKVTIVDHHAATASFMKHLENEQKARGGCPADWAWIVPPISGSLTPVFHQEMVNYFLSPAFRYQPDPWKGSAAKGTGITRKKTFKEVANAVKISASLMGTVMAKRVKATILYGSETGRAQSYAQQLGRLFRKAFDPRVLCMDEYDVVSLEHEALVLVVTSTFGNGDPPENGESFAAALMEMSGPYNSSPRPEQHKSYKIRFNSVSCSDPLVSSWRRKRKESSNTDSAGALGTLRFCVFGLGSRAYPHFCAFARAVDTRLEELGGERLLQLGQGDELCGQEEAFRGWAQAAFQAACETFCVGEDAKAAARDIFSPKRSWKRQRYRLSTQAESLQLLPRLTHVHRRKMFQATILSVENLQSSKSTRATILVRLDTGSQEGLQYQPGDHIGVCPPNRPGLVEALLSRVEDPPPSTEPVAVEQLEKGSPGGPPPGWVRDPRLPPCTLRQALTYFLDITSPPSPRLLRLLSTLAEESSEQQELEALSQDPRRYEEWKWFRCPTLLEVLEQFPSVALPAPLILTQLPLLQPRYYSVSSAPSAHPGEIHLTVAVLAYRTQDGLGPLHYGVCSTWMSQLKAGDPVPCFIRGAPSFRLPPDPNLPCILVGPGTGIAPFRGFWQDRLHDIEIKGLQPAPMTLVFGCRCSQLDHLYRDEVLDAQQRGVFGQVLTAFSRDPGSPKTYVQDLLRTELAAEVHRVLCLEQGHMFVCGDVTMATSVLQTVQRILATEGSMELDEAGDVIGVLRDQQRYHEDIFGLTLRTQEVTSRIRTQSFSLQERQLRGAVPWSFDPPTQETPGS
Description: (§1) Cell isolation and culture. Sinusoidal endothelial cells were isolated from male Sprague-Dawley rats (450-500 g) (Harlan, Indianapolis, Ind.). In brief, after in situ perfusion of the liver with 20 mg/100 mg pronase (Roche Molecular Biochemicals, Indianapolis, Ind.), followed by collagenase (Worthington Biochemical, Lakewood, N.J.), dispersed cell suspensions were removed from a layered discontinuous density gradient of 8.2 and 15.6% Accudenz (Accurate Chemical and Scientific, Westbury, N.Y.), further purified by centrifugal elutriation (18 ml/min flow), and were grown in medium containing 20% serum (10% horse/calf). The purity of endothelial cells was documented by their uptake of fluorescently labeled di-l-acetoacetylated low-density lipoprotein as described (21). Only primary sinusoidal endothelial isolates of >95% purity were used for study. Experiments were performed with cells frorrr a minimum three different isolations (for all experiments).
(§2) Animal model of liver injury and portal hypedension. Liver injury and portal hypertension were induced by performing bile duct ligation in 450- to 500-gram male retired breeder Sprague-Dawley rats as described in Liu and 20- to 25-gram male BALB/c mice. Briefly, bile duct ligation was performed by surgical isolation and ligation of the common bile duct. This model creates a portal-based fibrogenic response and portal hypertension 10-14 days after surgery (Liu). For study of injured sinusoidal endothelial cells, we used the rat model of bile duct ligation (10-14 days postsurgery); for in vivo study (primarily to conserve the use of active compound), we used the mouse model of bile duct ligation (examining portal pressure 4 wk postsurgery). In sham-operated rats or mice, laparotomy without isolation and section of the bile duct was performed. Studies were approved by the local Institutional Animal Care and Use Committees. Portal pressure measurement. Portal hypertension was induced in male BALB/c mice by bile duct ligation as above. Cicletanine (5 mg·kg^−1·day^−1) or vehicle was given by gavage as a single daily dose for 10 days before portal pressure measurement as described in Liue. In brief, mice were anesthetized, and an intravenous catheter (Becton Dickinson Vascular Access, Sandy, Utah) was introduced in the portal vein and secured with a silk tie. A calibrated low-pressure transducer (Digi-Med, Louisville, Ky.) was connected to the portal vein catheter, and portal pressure was recorded continuously using the Digi-Med Integrator 200 System (Digi-bled).
NOS activity assay. NOS activity from sinusoidal endothelial cell lysates was assessed by measuring the conversion of L-[3H]arginine to L-[3H]citrulline as described (6) per the manufacturer's instructions (Cayman Chemical). In brief, triplicate samples of cell lysates were incubated with a reaction buffer containing 3 pmol of L-[3H]arginine (45 Ci/mmol), 0-50 μM arginine, 1 mM NADPH, 100 nM calmodulin (CaM), 2 mM CaCl2, and 30 μM BH4 in a volume of 50-100 μl at room temperature for 30 min and at 37° C. for an additional 30 min in the presence and absence of 1 mM NG-nitro-L-arginine methyl ester (L-NAME). […] Radiolabeled counts per minute of generated L-citrulline were measured and used to determine L-NAME-inhibitable NOS activity (thus, each experiment included total counts and background counts). […] The reductase activities of sinusoidal endothelial cells with or without cicletanine exposure were determined using the NADPH-dependent cytochrome c assay. […]

[2] = system: NO production in sinusoidal endothelial cells; assay: NO measurement (nitrite in conditioned medium of sinusoidal endothelial cells); type: cell-based, rat; details: for effect on cicletanine-induced NO production: PD-98059 10 μM 30 min, then cicletanine 100 nM 2 h
Description: as §1, §2
NO measurement. To assess NO production, we analyzed the release of nitrite, the stable breakdown product of NO, using a nitrite/nitrate assay kit (Cayman Chemicals, Ann Arbor, Mich.), following the manufacturer's instructions. Briefly, conditioned medium from sinusoidal endothelial cells with or without cicletanine treatment were loaded on a 96-well plate and mixed with both enzyme cofactor and nitrate reductase. After incubation at room temperature for 3 h, 100 μl Griess reagent mix were added to each well. After 10 more minutes at room temperature, the absorbance of each well was determined on a microplate reader at 540 nm, and the nitrite concentrations were deduced from a standard curve.

[3] = system: protein kinase G (PKG); assay: Phospho-VASP immunoblotting for PKG activity in stellate cells alone or cocultured with sinusoidal endothelial cells; type: cell-based, rat; details: coculture, L-NAME 1 μM 4 h, then cicletanine 100 nM
Description: For coculture experiments, freshly isolated stellate cells and freshly isolated sinusoidal endothelial cells were isolated separately and mixed together on collagen-coated plates and cultured for 5 days. Sinusoidal endothelial cells were plated at a density of 200,000 cells/cm2, and stellate cells were at a density of 65,000 cells/cm2.
(§3) Immunoblotting, Immunoblotting was performed by using specified primary antibodies, including anti-eNOS antibody (1:1,000; BD Transduction Laboratories, San Jose, Calif.), anti-phospho-eNOS-Ser^1177 (1:1,000; BD Transduction Laboratories or Cell Signaling Technology), anti-phospho-Akt, anti-Akt (Cell Signaling Technology, Beverly, Mass.), and horseradish peroxidase-conjugated secondary antibody. Specific signals were visualized using enhanced chemiluminescence as per the manufacturer's instructions and were scanned and quantitated with standard software.

[4] = system: eNOS; assay: eNOS phosphorylation (Ser1177) and total eNOS by immunoblotting in sinusoidal endothelial cells; type: cell-based, rat; details: PD-98059 10 μM 30 min, then cicletanine 100 nM 2 h
Description: as §1, §3, §2

COC(=O)[C@@H](N)CCCNC(=N)N[N+](=O)[O-] [L-NAME, NG-nitro-L-arginine methyl ester]
effect on cicletanine-induced eNOS activity [1]: inhibitable
effect on nitrite production ([2]; L-NAME 1 μM preexposure 4 h, then cicletanine 2 h): inhibited
effect on cicletanine-stimulated VASP phosphorylation [3]: inhibited

COc1cccc(-c2cc(=O)c3ccccc3o2)c1N [PD-98059]
effect on cicletanine-induced eNOS phosphorylation [4]: blocked
effect on cicletanine-induced eNOS phosphorylation ([4]; listed as PD-098059): abolished
effect on cicletanine-induced NO production [2]: blocked
effect on cicletanine-induced NO production ([2]; listed as PD-098059): abolished

Cc1ncc2c(c1O)COC2c1ccc(Cl)cc1 (centres unmarked) [S-cicletanine]
production of nitrite, (+) isomer compared with (−) isomer ([2]; comparison of isomers): more effective than the (−) isomer of cicletanine
